# Results as given in patent US6818739B2, “Somatostatins” (NDSU Research Foundation, priority 1999, dated 2004).
# Ends that are not written are not given here.
# Key:
# rainbow trout = conditions: in rainbow trout; Eilertson et al. 1993; cited from earlier work
# [1] = system: goldfish pituitary fragments; conditions: goldfish pituitary fragments in vitro; Marchant et al. 1989; cited from earlier work
# [2] = target: T1, human somatostatin receptor subtype 1 (Homo sapiens, UniProt P30872); test: Radio-receptor assay: competitive binding of somatostatins to cloned somatostatin receptor; conditions: microsomes from COS-7 cells transiently expressing the human SS type 1 receptor; compared with mammalian SS-14 and mammalian SS-28; FIG. 8
# T1 construct: expressed in transfected cells; host or cells: COS-7 cells, transient transfection with pCMV6b expression vector; microsomal membranes
# Procedure: Somatostatin receptor cDNA was cloned into an expression vector, transfected into a eukaryotic cell line, and expressed as a peptide on the cell's surface to characterized the binding properties of the receptor for various somatostatin ligands.
# Human somatostatin receptor subtype I cDNA was graciously obtained from Dr. Graeme Bell at the University of Chicago. Clones were prepared substantially as described in Yamada et al., Proc. Natl. Acad. Sci. USA, 89, 251-255 (1992). Briefly, a cDNA library was created by inserting total cDNA into a cloning vector. Clones containing the cDNA inserts were digested with restriction endonuclease Bg1II and subsequently subcloned in the pCMV6b expression vector (Stratagene Zap Express cDNA Synthesis Kit, La Jolla, Calif.). The resulting expression vector containing the cloned somatostatin receptor was transfected into COS-7 (American Tissue Culture Collection, Manassas, Va.) cells for peptide expression.
# Twenty-four hours after splitting cells (e.g., COS-7) into new T-75 culture flasks (Nalgene, Rochester, N.Y.), the cells were washed with phosphate-buffered saline (PBS) and Tris-buffered saline-dextrose (TBS-D) solutions. […]
# All tubes were incubated for 30-60 minutes at 37° C. while shaking. […] The resulting pellets were counted in a gamma counter to determine the binding properties of the various ligands to the somatostatin receptor.
# [3] = target: T2, cloned human somatostatin receptor subtype 1 (human, UniProt P30872 1-391); test: radio-receptor competition assay, displacement of 125I-[Tyr1]-SS-14 from COS-7 microsomal membranes
# T2 construct: whole, on cells; Transiently expressed in COS-7 cells; The assay used microsomal membrane preparations of these cells, not intact cells; also called human SS type 1 receptor; human somatostatin receptor type 1
# T2 sequence (P30872 whole entry): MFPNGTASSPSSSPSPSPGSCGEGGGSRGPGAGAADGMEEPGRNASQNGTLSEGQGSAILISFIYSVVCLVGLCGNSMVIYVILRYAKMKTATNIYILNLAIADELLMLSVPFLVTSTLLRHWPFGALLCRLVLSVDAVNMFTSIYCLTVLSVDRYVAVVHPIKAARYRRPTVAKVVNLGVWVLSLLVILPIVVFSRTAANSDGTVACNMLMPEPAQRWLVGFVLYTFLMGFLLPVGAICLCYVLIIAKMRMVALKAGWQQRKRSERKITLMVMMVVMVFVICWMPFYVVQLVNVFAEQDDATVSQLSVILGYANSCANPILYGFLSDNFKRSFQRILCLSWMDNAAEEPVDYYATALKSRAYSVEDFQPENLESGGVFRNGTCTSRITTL
# Procedure: Briefly, cell membranes, 25–1000 µg, were added to two sets of tubes labeled for total and non-specific binding (in triplicate) containing the following reagents in a final volume of 300 µl.
# All tubes were incubated for 30–60 minutes at 37° C. while shaking. Reactions were stopped by adding 1 ml of ice-cold assay buffer and centrifuged at 20,000×g for 15 minutes. The supernatant is aspirated off. The resulting pellets were washed once with ice-cold assay buffer and centrifuged again at 20,000×g for 15 minutes. Again, the supernatant was aspirated off. The resulting pellets were counted in a gamma counter to determine the binding properties of the various ligands to the somatostatin receptor.
# T1 sequence (P30872 whole entry): as above
Molecule,inhibition of insulin (rainbow trout),ability to inhibit the release of growth hormone [1],affinity of the human somatostatin receptor type 1 for the ligand (inhibition of binding of 125I-[Tyr1]-SS-14) [2],binding result [3]
Ala-Gly-Cys-Lys-Asn-Phe-Phe-Trp-Lys-Thr-Phe-Thr-Ser-Cys [SS-14],did not,equipotent,,
"salmonid SS-25: 25 amino acid PPSS-II″ proprotein containing [Tyr7, Gly10]-SS-14 at its C-terminus; synthetic (SVDNLPPRERKAGCKNFYWKGFTSC; ends and bridges not checked; cysteine pairing not given here)",inhibited insulin,no effect,greater affinity,
Ser-Ala-Asn-Ser-Asn-Pro-Ala-Met-Ala-Pro-Arg-Glu-Arg-Lys-Ala-Gly-Cys-Lys-Asn-Phe-Phe-Trp-Lys-Thr-Phe-Thr-Ser-Cys (SANSNPAMAPRERKAGCKNFFWKTFTSC; listed as Homo sapiens) [SS-28],,equipotent,,
SANSNPAMAPRERKAGCKNFFWKTFTSC [mammalian SS-28],,,,binds
